The source of these data is patent US9896435B2, “N-pyrrolidinyl,N′-pyrazolyl-urea, thiourea, guanidine and cyanoguanidine compounds as TrkA kinase inhibitors” (Array BioPharma Inc., priority 2012, dated 2018).

The target in the test is His-tagged recombinant human TrkA (Homo sapiens (Human), UniProt P04629). Description: TrkA LanthaScreen Eu Kinase Binding Assay. Conditions: averaged IC50; LanthaScreen binding assay of Example A; read-out: TrkA Enzyme IC50. How it is done:
TrkA binding activity was determined in a TrkA LanthaScreen™ Eu Kinase Binding Assay. 5 nM His-tagged recombinant human TrkA (6HIS tagged cytoplasmic domain from Invitrogen, Catalog No. PV3144) was incubated with 4 nM Alexa-Fluor® Tracer 236 (Invitrogen Cat. No. PV5592), 2 nM biotinylated anti-His (Invitrogen Cat. No. PV6090), and 2 nM europium-labeled Streptavidin (Invitrogen Cat. No. PV5899), in buffer (25 mM MOPS, pH 7.5, 5 mM MgCl2, 0.005% Triton X-100). Three fold serial dilutions of compounds of the invention in DMSO were added to a final percentage of 2% DMSO. After 60-minute incubation at 22° C., the reaction was measured using the EnVision mutlimode plate reader (PerkinElmer) via TR-FRET dual wavelength detection at […]. The percent of control was calculated using a ratiometric emission factor. The IC50 values were determined by fitting a four parameter model to the percent of control data.
Table A provides averaged IC50 values for compounds of the invention when tested in the assay of Example A, where A represents an averaged IC50 value<100 nM.
For orientation: TR-FRET usually uses a lanthanide donor and a delayed reading to cut background.

The structures appear in SMILES notation. pIC50: −log10 of the molar value.

Chain of His-tagged recombinant human TrkA (P04629 440-796): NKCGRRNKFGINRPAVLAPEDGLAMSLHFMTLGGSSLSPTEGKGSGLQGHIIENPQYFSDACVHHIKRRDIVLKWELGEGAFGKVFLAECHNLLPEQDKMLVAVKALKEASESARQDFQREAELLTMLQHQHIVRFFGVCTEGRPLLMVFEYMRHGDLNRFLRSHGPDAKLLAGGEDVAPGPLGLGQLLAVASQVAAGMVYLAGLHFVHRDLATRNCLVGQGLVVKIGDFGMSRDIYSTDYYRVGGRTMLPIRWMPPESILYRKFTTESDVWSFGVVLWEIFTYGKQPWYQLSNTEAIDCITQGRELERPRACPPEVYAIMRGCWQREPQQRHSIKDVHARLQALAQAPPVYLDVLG

Broadly, the pIC50 is −log10 of the IC50, conventionally taken in molar units. As to `COCCN1C[C@@H](NC(=O)Nc2c(C)c(-c3cnc(=O)n(C)c3)nn2-c2ccccc2)[C@H](c2ccc(F)c(F)c2)C1` [Example 28, 1-((3S,4R)-4-(3,4-difluorophenyl)-1-(2-methoxyethyl)pyrrolidin-3-yl)-3-(4-methyl-3-(1-methyl-2-oxo-1,2-dihydropyrimidin-5-yl)-1-phenyl-1H-pyrazol-5-yl)urea], the negative-log IC50 (pIC50) was more than 7.00.
As to `COCCN1C[C@@H](NC(=O)Nc2c(C)c(-c3ccc(=O)n(C)n3)nn2-c2ccccc2)[C@H](c2ccc(F)cc2)C1` [Example 18, 1-((3S,4R)-4-(4-fluorophenyl)-1-(2-methoxyethyl)pyrrolidin-3-yl)-3-(4-methyl-3-(1-methyl-6-oxo-1,6-dihydropyridazin-3-yl)-1-phenyl-1H-pyrazol-5-yl)urea], the pIC50 was more than 7.00.
For `COCCN1C[C@@H](NC(=O)Nc2c(C)c(-c3cncc(C#N)c3)nn2-c2ccccc2)[C@H](c2ccc(F)c(F)c2)C1` [Example 7, 1-(3-(5-cyanopyridin-3-yl)-4-methyl-1-phenyl-1H-pyrazol-5-yl)-3-((3S,4R)-4-(3,4-difluorophenyl)-1-(2-methoxyethyl)pyrrolidin-3-yl)urea] the value was more than 7.00; for `CCOc1ncc(-c2nn(-c3ccccc3)c(NC(=O)N[C@@H]3CN(CCOC)C[C@H]3c3ccc(F)cc3)c2C)cn1` [Example 15, 1-(3-(2-ethoxypyrimidin-5-yl)-4-methyl-1-phenyl-1H-pyrazol-5-yl)-3-((3S,4R)-4-(4-fluorophenyl)-1-(2-methoxyethyl)pyrrolidin-3-yl)urea], more than 7.00.
On to `COCCN1C[C@@H](NC(=O)Nc2c(C)c(-c3ccc(=O)n(C)c3)nn2-c2ccccc2)[C@H](c2cc(F)c(F)c(F)c2)C1` [Example 26, 1-((3S,4R)-1-(2-methoxyethyl)-4-(3,4,5-trifluorophenyl)pyrrolidin-3-yl)-3-(4-methyl-3-(1-methyl-6-oxo-1,6-dihydropyridin-3-yl)-1-phenyl-1H-pyrazol-5-yl)urea], for which the pIC50 was more than 7.00.
